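Following 48 hours of exposure in 96-well plates, responses at five concentrations were used to interpolate endpoints linearly. GI50 is the concentration that inhibits growth by half.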 The source made the active and inactive calls. No stated cut-off is given here; in the data, active = GI50 up to about 1.1 µM and inactive = higher.
Experiments:
Test in all cases: NCI-60 cell line screen, 48 h
[1] = system: MOLT-4
[2] = system: SW-620
[3] = system: M14
[4] = system: HCC 2998
[5] = system: OVCAR-8
[6] = system: T47D
[7] = system: UO-31
[8] = system: CCRF-CEM
[9] = system: OVCAR-3
[10] = system: IGROV-1
[11] = system: NCI/ADR-RES
[12] = system: SK-MEL-28
[13] = system: NCI-H460
[14] = system: MCF7
[15] = system: SK-OV-3
[16] = system: 786-0
[17] = system: MDA-MB-435
[18] = system: RPMI-8226
[19] = system: SNB-19
[20] = system: U-251
[21] = system: BT-549
[22] = system: UACC-257
[23] = system: HOP-62
[24] = system: HCT-15
[25] = system: SF-295
[26] = system: OVCAR-4
[27] = system: Hs-578T
[28] = system: SK-MEL-5
[29] = system: LOX IMVI
[30] = system: A549
[31] = system: OVCAR-5
[32] = system: MDA-MB-231
[33] = system: HOP-92
[34] = system: UACC-62
[35] = system: K562
[36] = system: SF-539
[37] = system: HL-60
[38] = system: ACHN
[39] = system: HCT-116
[40] = system: KM12
[41] = system: SK-MEL-2
[42] = system: SNB-75
[43] = system: PC-3
[44] = system: NCI-H226
[45] = system: DU-145
[46] = system: NCI-H522
[47] = system: A498
[48] = system: HT-29
[49] = system: Malme-3M
[50] = system: RXF 393
[51] = system: TK-10
[52] = system: MDA-N
[53] = system: SN12C
[54] = system: NCI-H23
[55] = system: EKVX
[56] = system: CAKI-1
[57] = system: SF-268
[58] = system: COLO 205

Compound: C/C(=N\NC(=S)N(C)C)c1ccccn1
- GI50 [1]: < 0.01 µM (active)
- GI50 [2]: 0.0109 µM (active)
- GI50 [3]: < 0.01 µM (active)
- GI50 [4]: 0.161 µM (active)
- GI50 [5]: < 0.01 µM (active)
- GI50 [6]: < 0.01 µM (active)
- GI50 [7]: 0.122 µM (active)
- GI50 [8]: < 0.01 µM (active)
- GI50 [9]: < 0.01 µM (active)
- GI50 [10]: < 0.01 µM (active)
- GI50 [11]: < 0.01 µM (active)
- GI50 [12]: 0.269 µM (active)
- GI50 [13]: < 0.0156 µM (active)
- GI50 [14]: < 0.01 µM (active)
- GI50 [15]: < 0.0264 µM (active)
- GI50 [16]: < 0.0118 µM (active)
- GI50 [17]: 0.221 µM (active)
- GI50 [18]: < 0.0379 µM (active)
- GI50 [19]: 1.47 µM (inactive)
- GI50 [20]: < 0.01 µM (active)
- GI50 [21]: 0.0111 µM (active)
- GI50 [22]: < 0.01 µM (active)
- GI50 [23]: 0.033 µM (active)
- GI50 [24]: < 0.01 µM
- GI50 [25]: < 0.01 µM (active)
- GI50 [26]: < 0.01 µM (active)
- GI50 [27]: 3.7 µM (inactive)
- GI50 [28]: 0.178 µM (active)
- GI50 [29]: < 0.01 µM (active)
- GI50 [30]: 0.0413 µM (active)
- GI50 [31]: 0.0373 µM (active)
- GI50 [32]: < 0.01 µM (active)
- GI50 [33]: 0.498 µM (active)
- GI50 [34]: < 0.0124 µM (active)
- GI50 [35]: < 0.01 µM (active)
- GI50 [36]: 0.231 µM (active)
- GI50 [37]: < 0.01 µM (active)
- GI50 [38]: < 0.0122 µM (active)
- GI50 [39]: < 0.01 µM (active)
- GI50 [40]: 0.0307 µM (active)
- GI50 [41]: 0.139 µM (active)
- GI50 [42]: 0.486 µM (active)
- GI50 [43]: < 0.01 µM (active)
- GI50 [44]: 0.148 µM (active)
- GI50 [45]: 0.161 µM (active)
- GI50 [46]: 0.247 µM (active)
- GI50 [47]: 0.519 µM (active)
- GI50 [48]: < 0.01 µM (active)
- GI50 [49]: 0.219 µM (active)
- GI50 [50]: 0.41 µM (active)
- GI50 [51]: 0.564 µM (active)
- GI50 [52]: 0.305 µM (active)
- GI50 [53]: 0.057 µM (active)
- GI50 [54]: < 0.01 µM (active)
- GI50 [55]: 0.0284 µM (active)
- GI50 [56]: 0.186 µM (active)
- GI50 [57]: < 0.0317 µM (active)
- GI50 [58]: < 0.01 µM (active)

Compound: Cc1ccc2nc(-c3ccc(NC(=O)c4ccc(N)cc4)c(S(=O)(=O)O)c3)sc2c1
- GI50 [1]: > 100 µM (inactive)
- GI50 [2]: > 100 µM (inactive)
- GI50 [3]: > 100 µM (inactive)
- GI50 [4]: > 100 µM (inactive)
- GI50 [5]: > 100 µM (inactive)
- GI50 [6]: > 100 µM (inactive)
- GI50 [7]: > 100 µM (inactive)
- GI50 [8]: > 100 µM (inactive)
- GI50 [9]: > 100 µM (inactive)
- GI50 [10]: > 100 µM (inactive)
- GI50 [11]: > 100 µM (inactive)
- GI50 [12]: > 100 µM (inactive)
- GI50 [13]: > 100 µM (inactive)
- GI50 [14]: > 100 µM (inactive)
- GI50 [15]: > 100 µM (inactive)
- GI50 [16]: > 100 µM (inactive)
- GI50 [17]: > 100 µM (inactive)
- GI50 [18]: > 100 µM (inactive)
- GI50 [19]: > 100 µM (inactive)
- GI50 [20]: > 100 µM (inactive)
- GI50 [21]: > 100 µM (inactive)
- GI50 [22]: > 100 µM (inactive)
- GI50 [23]: > 100 µM (inactive)
- GI50 [24]: > 100 µM
- GI50 [25]: > 100 µM (inactive)
- GI50 [26]: > 100 µM (inactive)
- GI50 [27]: > 100 µM (inactive)
- GI50 [28]: > 100 µM (inactive)
- GI50 [29]: > 100 µM (inactive)
- GI50 [30]: > 100 µM (inactive)
- GI50 [31]: > 100 µM (inactive)
- GI50 [32]: > 100 µM (inactive)
- GI50 [33]: > 100 µM (inactive)
- GI50 [34]: > 100 µM (inactive)
- GI50 [35]: > 100 µM (inactive)
- GI50 [37]: > 100 µM (inactive)
- GI50 [38]: > 100 µM (inactive)
- GI50 [39]: > 100 µM (inactive)
- GI50 [40]: > 100 µM (inactive)
- GI50 [42]: > 100 µM (inactive)
- GI50 [43]: > 100 µM (inactive)
- GI50 [44]: > 100 µM (inactive)
- GI50 [45]: > 100 µM (inactive)
- GI50 [46]: > 100 µM (inactive)
- GI50 [47]: > 100 µM (inactive)
- GI50 [48]: > 100 µM (inactive)
- GI50 [49]: > 100 µM (inactive)
- GI50 [50]: > 100 µM (inactive)
- GI50 [51]: > 100 µM (inactive)
- GI50 [52]: > 100 µM (inactive)
- GI50 [53]: > 100 µM (inactive)
- GI50 [54]: > 100 µM (inactive)
- GI50 [55]: > 100 µM (inactive)
- GI50 [56]: > 100 µM (inactive)
- GI50 [57]: > 100 µM (inactive)
- GI50 [58]: > 100 µM (inactive)

From ChEMBL document CHEMBL1201862, “PubChem BioAssay data set” (2004)
